Test system: A. castellanii
Test: alamarBlue assay of susceptibility of A. castellanii to glyphosate
Assay type: cell-based
Details: Acanthamoeba castellanii; A. castellanii (Neff strain) trophozoites, 96 hr incubation, glyphosate 9 mM to 0.27 μM, FIG. 1; read-out: IC50 (inhibition of A. castellanii, percent alamarBlue reduction relative to untreated control cultures)
Protocol: Acanthamoeba polyphaga (Strain No. 1501/18) were obtained from CCAP (Cumbria, UK). Acanthamoeba castellanii (Neff strain) was kindly obtained from Keith Vickerman (Glasgow, UK). A. castellanii and A. polyphaga trophozoites were grown in (a) Rich media containing […] (Fluka, UK) and 0.9% maltose (Sigma, UK) and supplemented with 1% Penicillin, Streptomycin and Amphotericin B (All Sigma, UK) or (b) modified 11 containing 20% Rich media. Acanthamoeba spp. were incubated at room temperature in 75 cm^2 tissue culture flasks until 90-95% confluence, then harvested or sub-cultured using Accutase (Sigma, UK).
The susceptibility of the A. castellanii to glyphosate as assessed by the almarBlue assay. The susceptibility of A. castellanii to glyphosate was determined by a modification of the method described by McBride et al., (2005). A. castellanii cells were grown in 75 cm^2 flasks until 90-95% confluence and harvested using Accutase (Sigma, UK). […] AlamarBlue reduction was assessed as previously described. The percent inhibition of almarBlue reduction was calculated using the formula: (εox)λAλ1−(εox)λ1Aλ. of treated Acanthamoeba/(εox)λA°λ1−(εox)λ1A°λ of untreated Acanthamoeba×100
[where: °λ1=absorbance of untreated control with alamarBlue at 570 nm); °λ2=absorbance of untreated control with alamarBlue at 600 nm)]. […]

O=C(O)CNCP(=O)(O)O [Glyphosate, N-(phosphonomethyl)glycine]
IC50: 2.19 to 4.39 µM

Reference: US7972610B2, “Antimicrobial compounds” (University of Strathclyde, priority 2005, dated 2011)
